Measurements: US12552757B2, “NRF2-activating compound” (SENJU PHARMACEUTICAL CO., LTD., priority 2019, dated 2026)

Experiments:
[1] = target: T1, binding between NRF2 and KEAP1 (Homo sapiens, UniProt Q14145); assay: Measurement 1 of Nrf2 activating action (binding assay): BRET assay of inhibition of the binding between NRF2 and KEAP1; settings: 50% binding inhibitory concentration, NanoLuc-NRF2 / KEAP1-HaloTag cell lysates
T1 construct: expressed in transfected cells; host or cells: HCE-T cells; each protein was expressed separately, and the two cell lysates were mixed in the well
T1 sequence (Q14145 whole entry): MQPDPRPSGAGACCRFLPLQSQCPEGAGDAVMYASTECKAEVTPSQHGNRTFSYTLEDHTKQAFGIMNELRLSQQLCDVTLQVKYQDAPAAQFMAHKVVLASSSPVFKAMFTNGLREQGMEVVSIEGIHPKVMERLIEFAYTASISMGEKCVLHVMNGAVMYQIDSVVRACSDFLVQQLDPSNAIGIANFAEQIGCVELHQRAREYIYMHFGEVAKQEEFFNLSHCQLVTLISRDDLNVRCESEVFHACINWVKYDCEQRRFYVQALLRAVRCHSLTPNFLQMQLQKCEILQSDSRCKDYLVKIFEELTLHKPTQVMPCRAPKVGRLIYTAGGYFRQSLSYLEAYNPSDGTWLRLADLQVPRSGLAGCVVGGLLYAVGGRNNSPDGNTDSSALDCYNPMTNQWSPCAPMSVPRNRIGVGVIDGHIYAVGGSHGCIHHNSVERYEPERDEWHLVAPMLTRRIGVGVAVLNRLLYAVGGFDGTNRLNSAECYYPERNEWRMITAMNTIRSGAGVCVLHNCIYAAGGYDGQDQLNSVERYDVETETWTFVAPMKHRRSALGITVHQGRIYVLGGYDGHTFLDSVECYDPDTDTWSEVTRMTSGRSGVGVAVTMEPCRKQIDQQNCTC
Experimental: Compounds 1 to 53 produced in the Examples were used as test substances.
The inhibitory activity of each compound on the binding between NRF2 and KEAP1 was measured by bioluminescence resonance energy transfer (BRET) assay. A plasmid having human NRF2 (Original Clone ID: ha01449s1) sequence fused with NanoLuc (19 kDa, Promega) at the N-terminal was transduced into HCE-T cells using FuGENE HD (Promega). 48 hours after transduction, the cell lysate was collected and used as an NRF2-expressing cell lysate. A plasmid having human KEAP1 (Original Clone ID: cs00328) sequence fused with HaloTag (33 kDa, Promega) at the C-terminal was transduced into HCE-T cells using FuGENE HD (Promega). After 24 hours, HaloTag Nano BRET 618 Ligand (Promega) was added to the medium. The cell lysate cultured for 24 hours after the addition was used as a KEAP1-expressing cell lysate.
The NRF2-expressing cell lysate and the KEAP1-expressing cell lysate were adjusted so that the luminescence and fluorescence intensities per well were constant. Tables 1 and 2 show the formulation of each reaction solution.
Each test substance at a concentration 100 times higher than the test concentration was dissolved in dimethylsulfoxide for adjustment. 49 μL of KEAP1 solution was added to a 96-well polystyrene microplate (FALCON) to which 1 μL of each test substance solution was added, followed by incubation for 15 minutes. Then, 50 μL of NRF2 solution was added to the above solution, followed by incubation for 1 hour. To measure the binding between NRF2 and KEAP1, NanoBRET Nano-Glo Substrate (Promega) diluted with Opti-Mem (Thermo Fisher Scientific) was added, followed by shaking for 30 seconds. Then, luminescence and fluorescence were measured using the GloMax Discover System (Promega). A 495-nm short pass filter and a 600-nm long pass filter were respectively used to measure donor and acceptor emission values. A value obtained by dividing the acceptor emission value by the donor emission value was regarded as BRET value. A BRET value when the compound was not added, and a BRET value when the KEAP1 solution was not added were respectively used as binding rates of 100% and 0%, and the binding rate when the compound was added was calculated. Further, using this binding rate, the 50% binding inhibitory activity concentration (IC50) was calculated from the following formula: IC50(M)=10^(LOG(A/B)×(50−C)/(D−C)+LOG(B)) • A: higher concentration out of 2 close concentrations across the inhibition rate of 50% • B: lower concentration out of 2 close concentrations across the inhibition rate of 50% • C: inhibition rate at B • D: inhibition rate at A

[2] = Measurement of metabolic stability in human liver microsomes; format: in vitro ADME; settings: residual ratio of test compound after 30 minutes at 37° C. with human liver microsome, LC/MS/MS
Experimental: 1 mmol/L DMSO solutions of the compounds produced in the Examples were prepared. Each of the 1 mmol/L DMSO solutions was diluted with acetonitrile to 10 μmol/L, and then diluted with a 6.5 mmol/L Q-NADPH solution to 200 nmol/L. 50 μL of each solution was added to the reaction group and the non-reaction group. 50 μL of a 0.2 mg protein/mL human liver microsome (Mixed Gender, Pool of 50 livers; XenoTech, LLC) solution was added to the reaction group, followed by incubation at 37° C. for 30 minutes with shaking. After 400 μL of methanol was added to the non-reaction group, 50 μL of a 0.2 mg protein/mL human liver microsome solution was added to adjust the formulation. After incubation in the reaction group, 400 μL of methanol was added to stop the reaction. The samples of the reaction group and non-reaction group were allowed to stand at −20° C. for about 30 minutes, followed by centrifugation at 4° C. at 3000 rpm for about 10 minutes. The supernatant was analyzed using LC/MS/MS, and the residual ratio of the test compound was calculated from the peak area value of the test compound using the following formula. The measurement was carried out using the following devices: HPLC system: LC-20A-Series High Performance Liquid Chromatograph (Shimadzu Corporation) and mass spectrometer: API 4000 (AB Sciex Pte. Ltd.), or using equivalent devices. Residual ratio (%)=(peak area value of test compound in reaction group/peak area value of test compound in non-reaction group)×100 Results

Row | Compound | IC50 [1] [nM] | Metabolic stability* [2] [%]
1 | CC[C@@H]1CN(Cc2cc(C(c3ccc(C(C)=O)o3)C(C)C(=O)O)ccc2C)S(=O)(=O)c2ccccc2O1 (stereo partly drawn) [Compound 24, 3-(5-acetylfuran-2-yl)-3-(3-{[(R)-4-ethyl-1,1-dioxide-3,4-dihydro-2H-benzo[b][1,4,5]oxathiazepin-2-yl]methyl}-4-methylphenyl)-2-methylpropanoic acid] | 0.83 | 72
2 | CC[C@@H]1CN(Cc2cc(C(CC(=O)O)c3ccc(C(=O)NC(C)C)o3)ccc2C)S(=O)(=O)c2ccccc2O1 (stereo partly drawn) [Compound 29, 3-(3-{[(R)-4-ethyl-1,1-dioxide-3,4-dihydro-2H-benzo[b][1,4,5]oxathiazepin-2-yl]methyl}-4-methylphenyl)-3-[5-(isopropylcarbamoyl)furan-2-yl]propanoic acid] | 17 | 83
3 | CC[C@@H]1CN(Cc2cc(C(CC(=O)O)c3ncc(C(C)=O)s3)ccc2C)S(=O)(=O)c2ccccc2O1 (stereo partly drawn) [Compound 40, 3-(5-acetylthiazol-2-yl)-3-(3-{[(R)-4-ethyl-1,1-dioxide-3,4-dihydro-2H-benzo[b][1,4,5]oxathiazepin-2-yl]methyl}-4-methylphenyl)propanoic acid] | 2.6 | 69
4 | CC[C@@H]1CN(Cc2cc(C(CC(=O)O)c3ccc(S(N)(=O)=O)s3)ccc2C)S(=O)(=O)c2ccccc2O1 (stereo partly drawn) [Compound 18, 3-(3-{[(R)-4-ethyl-1,1-dioxide-3,4-dihydro-2H-benzo[b][1,4,5]oxathiazepin-2-yl]methyl}-4-methylphenyl)-3-(5-sulfamoylthiophen-2-yl)propanoic acid] | 35 | 40
5 | CC[C@@H]1CN(Cc2cc(C(CC(=O)O)c3ccc(C(=O)NC)o3)ccc2C)S(=O)(=O)c2ccccc2O1 (stereo partly drawn) [Compound 26, 3-(3-{[(R)-4-ethyl-1,1-dioxide-3,4-dihydro-2H-benzo[b][1,4,5]oxathiazepin-2-yl]methyl}-4-methylphenyl)-3-[5-(methylcarbamoyl)furan-2-yl]propanoic acid] | 17 | 93
6 | CC[C@@H]1CN(Cc2cc(C(CC(=O)O)c3cncs3)ccc2C)S(=O)(=O)c2ccccc2O1 (stereo partly drawn) [Compound 39, 3-(3-{[(R)-4-ethyl-1,1-dioxide-3,4-dihydro-2H-benzo[b][1,4,5]oxathiazepin-2-yl]methyl}-4-methylphenyl)-3-(thiazol-5-yl)propanoic acid] | 3.8 | 89
7 | CC[C@@H]1CN(Cc2cc(C(CC(=O)O)c3ccc(C(=O)N(C)C)o3)ccc2C)S(=O)(=O)c2ccccc2O1 (stereo partly drawn) [Compound 27, 3-[5-(dimethylcarbamoyl)furan-2-yl]-3-(3-{[(R)-4-ethyl-1,1-dioxide-3,4-dihydro-2H-benzo[b][1,4,5]oxathiazepin-2-yl]methyl}-4-methylphenyl)propanoic acid] | 20 | 85
8 | CC[C@@H]1CN(Cc2cc(C(CC(=O)O)c3ccc(C(=O)N4CCCC4)o3)ccc2C)S(=O)(=O)c2ccccc2O1 (stereo partly drawn) [Compound 28, 3-(3-{[(R)-4-ethyl-1,1-dioxide-3,4-dihydro-2H-benzo[b][1,4,5]oxathiazepin-2-yl]methyl}-4-methylphenyl)-3-[5-(pyrrolidine-1-carbonyl)furan-2-yl]propanoic acid] | 19 | 67
9 | CC[C@@H]1CN(Cc2cc(C(CC(=O)O)c3ccc(C(C)=O)n3C)ccc2C)S(=O)(=O)c2ccccc2O1 (stereo partly drawn) [Compound 33, 3-(5-acetyl-1-methyl-1H-pyrrol-2-yl)-3-(3-{[(R)-4-ethyl-1,1-dioxide-3,4-dihydro-2H-benzo[b][1,4,5]oxathiazepin-2-yl]methyl}-4-methylphenyl)propanoic acid] | 0.3 | 62
10 | CC[C@@H]1CN(Cc2cc(C(CC(=O)O)c3ccc(C(=O)C4CC4)s3)ccc2C)S(=O)(=O)c2ccccc2O1 (stereo partly drawn) [Compound 20, 3-[5-(cyclopropanecarbonyl)thiophen-2-yl]-3-(3-{[(R)-4-ethyl-1,1-dioxide-3,4-dihydro-2H-benzo[b][1,4,5]oxathiazepin-2-yl]methyl}-4-methylphenyl)propanoic acid] | 24 | 7
11 | CC[C@@H]1CN(Cc2cc(C(CC(=O)O)c3ccc(C(=O)NCCOC)o3)ccc2C)S(=O)(=O)c2ccccc2O1 (stereo partly drawn) [Compound 30, 3-(3-{[(R)-4-ethyl-1,1-dioxide-3,4-dihydro-2H-benzo[b][1,4,5]oxathiazepin-2-yl]methyl}-4-methylphenyl)-3-{5-[(2-methoxyethyl)carbamoyl]furan-2-yl}propanoic acid] | 14 | 81
12 | CC[C@@H]1CN(Cc2cc(C(CC(=O)O)c3cc4c(s3)C(=O)NC4)ccc2C)S(=O)(=O)c2ccccc2O1 (stereo partly drawn) [Compound 38, 3-(3-{[(R)-4-ethyl-1,1-dioxide-3,4-dihydro-2H-benzo[b][1,4,5]oxathiazepin-2-yl]methyl}-4-methylphenyl)-3-(6-oxo-5,6-dihydro-4H-thieno[2,3-c]pyrrol-2-yl) propanoic acid] | 0.22 | 61
13 | CC[C@@H]1CN(Cc2cc(C(CC(=O)O)c3ccc(C(C)=O)n3CC)ccc2C)S(=O)(=O)c2ccccc2O1 (stereo partly drawn) [Compound 34, 3-(5-acetyl-1-ethyl-1H-pyrrol-2-yl)-3-(3-{[(R)-4-ethyl-1,1-dioxide-3,4-dihydro-2H-benzo[b][1,4,5]oxathiazepin-2-yl]methyl}-4-methylphenyl)propanoic acid] | 47 | 54
14 | CC[C@@H]1CN(Cc2cc(C(CC(=O)O)c3nc(C)c(C(C)=O)s3)ccc2C)S(=O)(=O)c2ccccc2O1 (stereo partly drawn) [Compound 41, 3-(5-acetyl-4-methylthiazol-2-yl)-3-(3-[{(R)-4-ethyl-1,1-dioxide-3,4-dihydro-2H-benzo[b][1,4,5]oxathiazepin-2-yl]methyl}-4-methylphenyl) propanoic acid] | 3.3 | 65
15 | CC[C@@H]1CN(Cc2cc(C(CC(=O)O)c3ccc(CNC(C)C)o3)ccc2C)S(=O)(=O)c2ccccc2O1 (stereo partly drawn) [Compound 32, 3-(3-{[(R)-4-ethyl-1,1-dioxide-3,4-dihydro-2H-benzo[b][1,4,5]oxathiazepin-2-yl]methyl}-4-methylphenyl)-3-(5-[(isopropylamino)methyl]furan-2-yl)propanoic acid] | 205 | 90
16 | CC[C@@H]1CN(Cc2cc(C(CC(=O)O)c3c(C)c(C(C)=O)c(C)n3C)ccc2C)S(=O)(=O)c2ccccc2O1 (stereo partly drawn) [Compound 35, 3-(4-acetyl-1,3,5-trimethyl-1H-pyrrol-2-yl)-3-(3-{[(R)-4-ethyl-1,1-dioxide-3,4-dihydro-2H-benzo[b][1,4,5]oxathiazepin-2-yl]methyl}-4-methylphenyl) propanoic acid] | 3.9 | 39
17 | CC[C@@H]1CN(Cc2cc(C(CC(=O)O)c3cc(C#N)n(C)c3)ccc2C)S(=O)(=O)c2ccccc2O1 (stereo partly drawn) [Compound 36, 3-(5-cyano-1-methyl-1H-pyrrol-3-yl)-3-(3-{[(R)-4-ethyl-1,1-dioxide-3,4-dihydro-2H-benzo[b][1,4,5]oxathiazepin-2-yl]methyl}-4-methylphenyl)propanoic acid] | 2.5 | 29
